The source of these data is PMC11799239, “Mechanistic insights into Rho/MRTF inhibition-induced apoptotic events and prevention of drug resistance in melanoma: implications for the involvement of pirin” (Frontiers in Pharmacology, 2025).

This test concerns the target T1, pirin (Homo sapiens, UniProt O00625).
T1 construct: gene PIR
T1 sequence (O00625 1-290): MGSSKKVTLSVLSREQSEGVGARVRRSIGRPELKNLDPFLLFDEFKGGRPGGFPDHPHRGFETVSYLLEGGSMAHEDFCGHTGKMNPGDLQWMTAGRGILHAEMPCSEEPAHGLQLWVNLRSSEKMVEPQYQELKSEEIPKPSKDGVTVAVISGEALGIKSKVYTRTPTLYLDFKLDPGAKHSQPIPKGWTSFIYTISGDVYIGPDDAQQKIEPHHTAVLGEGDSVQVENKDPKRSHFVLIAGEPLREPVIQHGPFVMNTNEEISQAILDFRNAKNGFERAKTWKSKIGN
Briefly: fluorescence polarization competition with a pirin FP reporter compound. As to conditions: read-out: CCG-257081 (S enantiomer) [drawing 1]. It is filed as binding.

The structures appear in SMILES notation.

With `O=C(Nc1ccc(Cl)cc1)[C@@H]1CN(C(=O)c2cc(F)cc(-c3ccncc3)c2)CC(F)(F)C1` [(S) CCG-257081], the IC50 was determined as 8 µM.
